Results from patent US20260232767A1, “INTERLEUKIN-23 RECEPTOR ANTAGONIST PEPTIDES FOR USE IN THE TREATMENT OF PSORIASIS” (Janssen Pharmaceutica NV, priority 2023, published 2026).

Tested on: subjects with moderate-to-severe plaque psoriasis
Assay: Safety, adverse events, Example 2 through Week 56
Assay type: in vivo, human
Description: The LTE safety analysis was based on randomized participants in Example who entered the present long-term extension study and received at least one dose of study intervention (including a partial dose) during the study period.

[1] = 25 mg QD, Week 16 through Week 56

For `CC(=O)NCCCC[C@@H]1NC(=O)[C@H](Cc2c[nH]c3c(C)cccc23)NC(=O)[C@H]([C@@H](C)O)NC(=O)[C@H](CC(N)=O)NC(=O)[C@@H](NC(C)=O)C(C)(C)SSC(C)(C)[C@@H](C(=O)N[C@@H](Cc2ccc(OCCN)cc2)C(=O)N[C@@H](Cc2ccc3ccccc3c2)C(=O)NC2(C(=O)N[C@@H](CCC(=O)O)C(=O)N[C@@H](CC(N)=O)C(=O)N[C@@H](Cc3cccnc3)C(=O)N(C)CC(N)=O)CCOCC2)NC1=O` [IL-23 receptor antagonist peptide, Ac-[Pen]*-N-T-[W(7-Me)]-[Lys(Ac)]-[Pen]*-Phe[4-(2-aminoethoxy)]-[2-Nal]-[THP]-E-N-[3-Pal]-Sarc-NH2 (*[Pen]-[Pen]* formdisulfidebond)], the “Ketonuria: number of subjects” value (25 mg BID, through Week 56) was 0, the “Leukocyturia: number of subjects” value (25 mg BID, through Week 56) was 0 and the “Leukopenia: number of subjects” value (25 mg BID, through Week 56) was 0. For the same compound, the “Libido decreased: number of subjects” value (25 mg BID, through Week 56) was 0, the “Liver disorder: number of subjects” value (25 mg BID, through Week 56) was 0 and the “Lymphopenia: number of subjects” value (25 mg BID, through Week 56) was 0. The “Menopause: number of subjects” value (25 mg BID, through Week 56) was 0, the “Metabolism and nutrition disorders: % of subjects” value (25 mg BID, through Week 56) was “(7.3%)” and the “Metabolism and nutrition disorders: number of subjects” value (25 mg BID, through Week 56) was 3. For the same compound, the “Neoplasms benign, malignant and unspecified (incl cysts and polyps): % of subjects” value (25 mg BID, through Week 56) was “(2.4%)”, the “Neoplasms benign, malignant and unspecified (incl cysts and polyps): number of subjects” value (25 mg BID, through Week 56) was 1 and the “Nephrolithiasis: number of subjects” value (25 mg BID, through Week 56) was 0. For the same compound, the “Neutropenia: number of subjects” value (25 mg BID, through Week 56) was 0, the “Night sweats: number of subjects” value (25 mg BID, through Week 56) was 0 and the “Non-cardiac chest pain: number of subjects” value (25 mg BID, through Week 56) was 0. For the same compound, the “Ocular cyst: number of subjects” value (25 mg BID, through Week 56) was 0, the “Oedema peripheral: number of subjects” value (25 mg BID, through Week 56) was 0 and the “Oropharyngeal pain: number of subjects” value (25 mg BID, through Week 56) was 0. For the same compound, the “Procedural pain: number of subjects” value (25 mg BID, through Week 56) was 0, the “Productive cough: number of subjects” value (25 mg BID, through Week 56) was 0 and the “Proteinuria: number of subjects” value (25 mg BID, through Week 56) was 0. For the same compound, the “Pruritus: number of subjects” value (25 mg BID, through Week 56) was 0, the “Psoriasis: % of subjects” value (25 mg BID, through Week 56) was “(2.4%)” and the “Psoriasis: number of subjects” value (25 mg BID, through Week 56) was 1. For the same compound, the “Psychiatric disorders: % of subjects” value (25 mg BID, through Week 56) was “(2.4%)”, the “Psychiatric disorders: number of subjects” value (25 mg BID, through Week 56) was 1 and the “Pyrexia: number of subjects” value (25 mg BID, through Week 56) was 0. For the same compound, the “Rash pruritic: number of subjects” value (25 mg BID, through Week 56) was 0, the “Renal and urinary disorders: number of subjects” value (25 mg BID, through Week 56) was 0 and the “Renal mass: number of subjects” value (25 mg BID, through Week 56) was 0. The “Respiratory, thoracic and mediastinal disorders: % of subjects” value (25 mg BID, through Week 56) was “(2.4%)”, the “Respiratory, thoracic and mediastinal disorders: number of subjects” value (25 mg BID, through Week 56) was 1 and the “Retinal vein occlusion: number of subjects” value (25 mg BID, through Week 56) was 0. The “Rhinorrhoea: number of subjects” value (25 mg BID, through Week 56) was 0, the “Seasonal allergy: number of subjects” value (25 mg BID, through Week 56) was 0 and the “Skin and subcutaneous tissue disorders: % of subjects” value (25 mg BID, through Week 56) was “(4.9%)”. For the same compound, the “Skin and subcutaneous tissue disorders: number of subjects” value (25 mg BID, through Week 56) was 2, the “Skin laceration: number of subjects” value (25 mg BID, through Week 56) was 0 and the “Skin papilloma: number of subjects” value (25 mg BID, through Week 56) was 0. For the same compound, the “Social circumstances: number of subjects” value (25 mg BID, through Week 56) was 0, the “Steatohepatitis: number of subjects” value (25 mg BID, through Week 56) was 0 and the “Subjects with AE leading to discontinuation: Abdominal discomfort” value (25 mg BID, through Week 56) was 0. For the same compound, the “Subjects with AE leading to discontinuation: Abdominal pain” value (25 mg BID, through Week 56) was 0, the “Subjects with AE leading to discontinuation: Alanine aminotransferase increased” value (25 mg BID, through Week 56) was 0 and the “Subjects with AE leading to discontinuation: Aspartate aminotransferase increased” value (25 mg BID, through Week 56) was 0. For the same compound, the “Subjects with AE leading to discontinuation: Ear and labyrinth disorders” value (25 mg BID, through Week 56) was 0, the “Subjects with AE leading to discontinuation: Gamma-glutamyltransferase increased” value (25 mg BID, through Week 56) was 0 and the “Subjects with AE leading to discontinuation: Investigations” value (25 mg BID, through Week 56) was 0. The “Subjects with AE leading to discontinuation: Nausea” value (25 mg BID, through Week 56) was 0, the “Subjects with AE leading to discontinuation: Suicide attempt” value (25 mg BID, through Week 56) was 0 and the “Subjects with AE leading to discontinuation: Transaminases increased” value (25 mg BID, through Week 56) was 0. For the same compound, the “Subjects with AE leading to discontinuation: Vertigo” value (25 mg BID, through Week 56) was 0, the “Subjects with AE leading to discontinuation: Vomiting” value (25 mg BID, through Week 56) was 0 and the “Subjects with AE leading to discontinuation: Weight increased” value (25 mg BID, through Week 56) was 0. The “Subjects with COVID-19 associated AE: SARS-CoV-2 test positive” value (25 mg BID, through Week 56) was 0, the “Subjects with treatment-emergent AE: Arthralgia” value (25 mg BID, through Week 56) was 0 and the “Subjects with treatment-emergent AE: Cough” value (25 mg BID, through Week 56) was 0. For the same compound, the “Subjects with treatment-emergent AE: Nasopharyngitis” value (25 mg BID, through Week 56) was 8, the “Subjects with treatment-emergent serious AE: COVID-19” value (25 mg BID, through Week 56) was 0 and the “Subjects with treatment-emergent serious AE: Cerebrovascular accident” value (25 mg BID, through Week 56) was 0. The “Subjects with treatment-emergent serious AE: Coronary artery disease” value (25 mg BID, through Week 56) was 0, the “Subjects with treatment-emergent serious AE: Diverticulitis” value (25 mg BID, through Week 56) was 0 and the “Subjects with treatment-emergent serious AE: Foot deformity” value (25 mg BID, through Week 56) was 0. For the same compound, the “Subjects with treatment-emergent serious AE: General disorders and administration site conditions” value (25 mg BID, through Week 56) was 0, the “Subjects with treatment-emergent serious AE: Infected cyst” value (25 mg BID, through Week 56) was 0 and the “Subjects with treatment-emergent serious AE: Infections and infestations” value (25 mg BID, through Week 56) was 0. The “Subjects with treatment-emergent serious AE: Intervertebral disc protrusion” value (25 mg BID, through Week 56) was 0, the “Subjects with treatment-emergent serious AE: Musculoskeletal and connective tissue disorders” value (25 mg BID, through Week 56) was 0 and the “Subjects with treatment-emergent serious AE: Neoplasms benign, malignant and unspecified (incl cysts and polyps)” value (25 mg BID, through Week 56) was 0. For the same compound, the “Subjects with treatment-emergent serious AE: Nervous system disorders” value (25 mg BID, through Week 56) was 0, the “Subjects with treatment-emergent serious AE: Non-cardiac chest pain” value (25 mg BID, through Week 56) was 0 and the “Subjects with treatment-emergent serious AE: Psychiatric disorders” value (25 mg BID, through Week 56) was 0. For the same compound, the “Subjects with treatment-emergent serious AE: Suicide attempt” value (25 mg BID, through Week 56) was 0, the “Subjects with treatment-emergent serious AE: Uterine leiomyoma” value (25 mg BID, through Week 56) was 0 and the “Suicide attempt: number of subjects” value (25 mg BID, through Week 56) was 0. The “Sunburn: % of subjects” value (25 mg BID, through Week 56) was “(2.4%)”, the “Sunburn: number of subjects” value (25 mg BID, through Week 56) was 1 and the “Thrombocytopenia: number of subjects” value (25 mg BID, through Week 56) was 0. For the same compound, the “Thrombocytosis: number of subjects” value (25 mg BID, through Week 56) was 0, the “Tonsillar hypertrophy: % of subjects” value (25 mg BID, through Week 56) was “(2.4%)” and the “Tonsillar hypertrophy: number of subjects” value (25 mg BID, through Week 56) was 1. For the same compound, the “Tooth fracture: number of subjects” value (25 mg BID, through Week 56) was 0, the “Type 2 diabetes mellitus: number of subjects” value (25 mg BID, through Week 56) was 0 and the “Urinary tract disorder: number of subjects” value (25 mg BID, through Week 56) was 0. For the same compound, the “Uterine leiomyoma: number of subjects” value (25 mg BID, through Week 56) was 0, the “Vascular disorders: % of subjects” value (25 mg BID, through Week 56) was “(4.9%)” and the “Vascular disorders: number of subjects” value (25 mg BID, through Week 56) was 2. For the same compound, the “Ventricular dysfunction: % of subjects” value (25 mg BID, through Week 56) was “(2.4%)”, the “Ventricular dysfunction: number of subjects” value (25 mg BID, through Week 56) was 1 and the “Vertigo: number of subjects” value (25 mg BID, through Week 56) was 0. For the same compound, the “Vitamin D deficiency: % of subjects” value (25 mg BID, through Week 56) was “(2.4%)”, the “Vitamin D deficiency: number of subjects” value (25 mg BID, through Week 56) was 1 and the “Number of subjects with treatment-emergent AE: Cholelithiasis” value [1] was 0. The “Number of subjects with treatment-emergent AE: Ear and labyrinth disorders” value [1] was 1, the “Number of subjects with treatment-emergent AE: Endocrine disorders” value [1] was 0 and the “Number of subjects with treatment-emergent AE: Eye disorders” value [1] was 0. For the same compound, the “Number of subjects with treatment-emergent AE: Eyelid skin dryness” value [1] was 0, the “Number of subjects with treatment-emergent AE: Goiter” value [1] was 0 and the “Number of subjects with treatment-emergent AE: Hepatobiliary disorders” value [1] was 0. The “Number of subjects with treatment-emergent AE: Hypertransaminasemia” value [1] was 0, the “Number of subjects with treatment-emergent AE: Immune system disorders” value [1] was 0 and the “Number of subjects with treatment-emergent AE: Insomnia” value [1] was 0. The “Number of subjects with treatment-emergent AE: Ocular cyst” value [1] was 0, the “Number of subjects with treatment-emergent AE: Psychiatric disorders” value [1] was 0 and the “Number of subjects with treatment-emergent AE: Retinal vein occlusion” value [1] was 0. The “Number of subjects with treatment-emergent AE: Seasonal allergy” value [1] was 0, the “Number of subjects with treatment-emergent AE: Vertigo” value [1] was 1 and the “Subjects with treatment-emergent AE: Ear and labyrinth disorders (%)” value [1] was “(2.9%)”. The “Subjects with treatment-emergent AE: Vertigo (%)” value [1] was “(2.9%)”, the “Acrochordon: number of subjects” value (25 mg QD, through Week 56) was 0 and the “Actinic keratosis: number of subjects” value (25 mg QD, through Week 56) was 0. For the same compound, the “Alopecia: % of subjects” value (25 mg QD, through Week 56) was “(2.3%)”, the “Alopecia: number of subjects” value (25 mg QD, through Week 56) was 1 and the “Asthenia: number of subjects” value (25 mg QD, through Week 56) was 0. For the same compound, the “Asthma: number of subjects” value (25 mg QD, through Week 56) was 0, the “Atrioventricular block first degree: number of subjects” value (25 mg QD, through Week 56) was 0 and the “Basal cell carcinoma: number of subjects” value (25 mg QD, through Week 56) was 0. For the same compound, the “Blood and lymphatic system disorders: % of subjects” value (25 mg QD, through Week 56) was “(2.3%)”, the “Blood and lymphatic system disorders: number of subjects” value (25 mg QD, through Week 56) was 1 and the “Bronchitis chronic: number of subjects” value (25 mg QD, through Week 56) was 0. The “Bundle branch block right: number of subjects” value (25 mg QD, through Week 56) was 0.
